Values after ≈ are worked out from the molar mass of the structure shown.
Experiments:
[1] = tested on: DU-145; assay: Cytotoxicity against human DU145 cells assessed as reduction in cell viability after 24 hrs by MTT assay; type: functional, cell-based; conditions: DU-145, 24 h
[2] = tested on: A549; assay: Cytotoxicity against human A549 cells assessed as reduction in cell viability after 24 hrs by MTT assay; type: functional, cell-based; conditions: A549, 24 h
[3] = tested on: SK-MEL-28; assay: Cytotoxicity against human SK-MEL-28 cells assessed as reduction in cell viability after 24 hrs by MTT assay; type: functional, cell-based; conditions: SK-MEL-28, 24 h
[4] = tested on: BT-20; assay: Cytotoxicity against human BT20 cells assessed as reduction in cell viability after 24 hrs by MTT assay; type: functional, cell-based; conditions: BT-20, 24 h
[5] = tested on: A2780; assay: Anticancer activity against human A2780 cells by CCK8 assay; type: functional, cell-based
[6] = tested on: Hep 3B2; assay: Anticancer activity against human Hep3B cells by CCK8 assay; type: functional, cell-based
[7] = tested on: OVCAR-3; assay: Anticancer activity against human OVCAR3 cells by CCK8 assay; type: functional, cell-based
[8] = tested on: HepG2; assay: Anticancer activity against human HepG2 cells by CCK8 assay; type: functional, cell-based
[9] = tested on: HepG2; assay: Cytotoxicity against human HepG2 cells assessed as reduction in cell viability by MTT assay; type: functional, cell-based; conditions: Homo sapiens, HepG2
[10] = tested on: MCF7; assay: Cytotoxicity against human MCF7 cells assessed as reduction in cell viability by MTT assay; type: functional, cell-based; conditions: Homo sapiens, MCF7
[11] = tested on: Caco-2; assay: Antiproliferative activity against human Caco2 cells after 72 hrs by ELISA; type: functional, cell-based; conditions: Caco-2, 72 h
[12] = tested on: HepG2; assay: Antiproliferative activity against human HepG2 cells after 72 hrs by ELISA; type: functional, cell-based; conditions: HepG2, 72 h
[13] = tested on: MCF7; assay: Antiproliferative activity against human MCF7 cells after 72 hrs by ELISA; type: functional, cell-based; conditions: MCF7, 72 h
[14] = tested on: SN12C; assay: Growth inhibition of human SN12C cells; type: functional
[15] = tested on: MCF7; assay: Growth inhibition of human MCF7 cells; type: functional
[16] = tested on: HepG2; assay: Growth inhibition of human HepG2 cells; type: functional
[17] = tested on: SNU1; assay: Growth inhibition of human SNU1 cells; type: functional
[18] = tested on: PANC-1; assay: Growth inhibition of human PANC1 cells; type: functional
[19] = Growth inhibition of human KATO III cells; type: functional
[20] = tested on: BXPC-3; assay: Growth inhibition of human BxPC3 cells; type: functional
[21] = tested on: SK-OV-3; assay: Growth inhibition of human SKOV3 cells; type: functional
[22] = tested on: T-24; assay: Growth inhibition of human T24 cells; type: functional
[23] = tested on: WiDr; assay: Growth inhibition of human WiDr cells; type: functional
[24] = tested on: OVCAR-8; assay: Growth inhibition of human OVCAR8 cells; type: functional
[25] = tested on: AGS; assay: Growth inhibition of human AGS cells; type: functional
[26] = tested on: MDA-MB-231; assay: Cytotoxicity against human MDA-MB-231 cells assessed as reduction in cell viability after 96 hrs by MTT assay; type: functional, cell-based; conditions: MDA-MB-231, 96 h
[27] = tested on: HT-29; assay: Cytotoxicity against human HT-29 cells assessed as reduction in cell viability after 96 hrs by MTT assay; type: functional, cell-based; conditions: HT-29, 96 h
[28] = tested on: HCT-116; assay: Cytotoxicity against human HCT116 cells assessed as reduction in cell viability after 96 hrs by MTT assay; type: functional, cell-based; conditions: HCT-116, 96 h
[29] = tested on: HepG2; assay: Cytotoxicity against human HepG2 cells assessed as reduction in cell viability after 48 hrs by MTT assay; type: functional, cell-based; conditions: HepG2, 48 h
[30] = tested on: MCF7; assay: Cytotoxicity against human MCF7 cells assessed as reduction in cell viability after 48 hrs by MTT assay; type: functional, cell-based; conditions: MCF7, 48 h
[31] = tested on: DLD-1; assay: Cytotoxicity against human DLD1 cells assessed as reduction in cell viability; type: functional, cell-based
[32] = tested on: MCF7; assay: Cytotoxicity against human MCF7 cells assessed as reduction in cell viability; type: functional, cell-based
[33] = target: Vascular endothelial growth factor receptor 2 (Homo sapiens, UniProt P35968); assay: Inhibition of VEGFR2 (unknown origin)
Chain of Vascular endothelial growth factor receptor 2 (P35968 whole entry): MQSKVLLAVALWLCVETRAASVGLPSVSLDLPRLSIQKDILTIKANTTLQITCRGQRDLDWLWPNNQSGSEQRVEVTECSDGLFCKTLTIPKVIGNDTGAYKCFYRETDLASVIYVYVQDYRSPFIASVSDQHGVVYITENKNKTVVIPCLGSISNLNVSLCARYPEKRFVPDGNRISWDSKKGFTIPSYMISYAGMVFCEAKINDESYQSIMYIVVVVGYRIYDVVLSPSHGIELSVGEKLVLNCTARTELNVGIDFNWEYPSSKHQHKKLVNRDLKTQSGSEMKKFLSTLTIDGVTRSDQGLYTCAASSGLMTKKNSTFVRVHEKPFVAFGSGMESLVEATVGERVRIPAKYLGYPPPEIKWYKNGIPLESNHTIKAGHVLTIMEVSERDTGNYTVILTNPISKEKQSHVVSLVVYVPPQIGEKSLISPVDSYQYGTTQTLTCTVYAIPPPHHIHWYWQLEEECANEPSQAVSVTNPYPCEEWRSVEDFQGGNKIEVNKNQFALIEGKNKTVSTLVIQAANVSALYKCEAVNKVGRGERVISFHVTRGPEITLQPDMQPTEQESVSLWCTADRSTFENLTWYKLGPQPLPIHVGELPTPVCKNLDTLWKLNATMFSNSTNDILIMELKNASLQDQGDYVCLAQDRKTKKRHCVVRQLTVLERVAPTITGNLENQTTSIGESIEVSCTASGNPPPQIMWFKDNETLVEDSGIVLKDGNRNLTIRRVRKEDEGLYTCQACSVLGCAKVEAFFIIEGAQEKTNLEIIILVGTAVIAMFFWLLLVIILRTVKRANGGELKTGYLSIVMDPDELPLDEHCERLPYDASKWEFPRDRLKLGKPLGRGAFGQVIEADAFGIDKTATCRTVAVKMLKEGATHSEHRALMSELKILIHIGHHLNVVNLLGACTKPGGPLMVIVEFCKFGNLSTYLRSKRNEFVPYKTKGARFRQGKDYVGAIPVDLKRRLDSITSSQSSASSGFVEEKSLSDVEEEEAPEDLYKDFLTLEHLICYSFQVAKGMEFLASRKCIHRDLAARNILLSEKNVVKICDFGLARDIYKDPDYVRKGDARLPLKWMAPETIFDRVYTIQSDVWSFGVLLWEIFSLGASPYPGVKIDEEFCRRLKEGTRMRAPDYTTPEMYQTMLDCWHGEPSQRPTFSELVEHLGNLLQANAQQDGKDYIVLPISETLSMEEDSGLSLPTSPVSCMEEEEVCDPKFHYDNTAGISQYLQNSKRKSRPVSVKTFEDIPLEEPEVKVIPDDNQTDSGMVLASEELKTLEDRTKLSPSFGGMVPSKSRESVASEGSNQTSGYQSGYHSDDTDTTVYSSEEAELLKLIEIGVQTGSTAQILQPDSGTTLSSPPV

[34] = tested on: HeLa; assay: Cytotoxicity against human HeLa cells assessed as reduction in cell viability after 72 hrs by MTT assay; type: functional, cell-based
[35] = tested on: K562; assay: Cytotoxicity against human K562 cells assessed as reduction in cell viability after 72 hrs by MTT assay; type: functional, cell-based; conditions: K562, 72 h
[36] = tested on: Caco-2; assay: Cytotoxicity against human Caco2 cells assessed as reduction in cell viability after 72 hrs by MTT assay; type: functional, cell-based; conditions: Caco-2, 72 h

Compound: CCN(CC)c1ccc2cc(C(=O)NNC(=O)Cn3nc(Cc4cccc(Br)c4)[nH]c3=O)c(=O)oc2c1
- IC50 [1]: 3.1 to 37.9 µg/mL (≈ 5.44 to 66.6 µM)
- IC50 [2]: 3.1 to 37.9 µg/mL (≈ 5.44 to 66.6 µM)
- IC50 [3]: 3.1 to 37.9 µg/mL (≈ 5.44 to 66.6 µM)
- IC50 [4]: 3.1 to 37.9 µg/mL (≈ 5.44 to 66.6 µM)

Compound: CCN(CC)c1ccc2cc(C(=O)N3CCN(CCC[C@H]4O[C@@H]5O[C@@]6(C)CC[C@H]7[C@H](C)CC[C@@H]([C@H]4C)[C@@]57OO6)CC3)c(=O)oc2c1
- IC50 [5]: 3.05 to 5.82 µM
- IC50 [6]: 3.05 to 5.82 µM
- IC50 [7]: 3.05 to 5.82 µM
- IC50 [8]: 3.05 to 5.82 µM

Compound: Cc1ccc2oc(=O)cc(CSc3nc(NN)c(C#N)c(-c4ccccc4)n3)c2c1
- IC50 [9]: 5.5 µM
- IC50 [10]: 6.9 µM

Compound: O=C(Cn1nc(Cc2ccccc2Br)[nH]c1=O)NNC(=O)c1cc2cc(Cl)cc(Cl)c2oc1=O
- IC50 [1]: 3.1 to 37.9 µg/mL (≈ 5.47 to 66.8 µM)
- IC50 [2]: 3.1 to 37.9 µg/mL (≈ 5.47 to 66.8 µM)
- IC50 [3]: 3.1 to 37.9 µg/mL (≈ 5.47 to 66.8 µM)
- IC50 [4]: 3.1 to 37.9 µg/mL (≈ 5.47 to 66.8 µM)

Compound: C/C(=N\Nc1c(Cl)cc(Cl)cc1Cl)c1ccc(NS(=O)(=O)c2ccc3oc(=O)ccc3c2)cc1
- IC50 [11]: 5.03 to 175 µM
- IC50 [12]: 5.03 to 175 µM
- IC50 [13]: 5.03 to 175 µM

Compound: Cc1cc2nc(-c3cc4ccccc4oc3=O)[nH]c2cc1C
- GI50 [14]: 0.07 to 3.57 µM
- GI50 [15]: > 10 µM
- GI50 [16]: 0.07 to 3.57 µM
- GI50 [17]: 0.07 to 3.57 µM
- GI50 [18]: 0.07 to 3.57 µM
- GI50 [19]: 0.07 to 3.57 µM
- GI50 [20]: 0.07 to 3.57 µM
- GI50 [21]: 0.07 to 3.57 µM
- GI50 [22]: 0.07 to 3.57 µM
- GI50 [23]: 0.07 to 3.57 µM
- GI50 [24]: 0.07 to 3.57 µM
- GI50 [25]: 0.07 to 3.57 µM

Compound: C[C@H]1[C@@H](OCc2cn(Cc3cc(=O)oc4cc(O)ccc34)nn2)O[C@@H]2O[C@@]3(C)CC[C@H]4[C@H](C)CC[C@@H]1[C@@]24OO3
- IC50 [26]: 8.57 to 100 µM
- IC50 [27]: 8.57 to 100 µM
- IC50 [28]: 8.57 to 100 µM

Compound: C/C(=N\NC1=NC(=O)C(C)S1)c1ccc(NS(=O)(=O)c2ccc3oc(=O)ccc3c2)cc1 (stereo unspecified)
- IC50 [11]: 5.03 to 175 µM
- IC50 [12]: 5.03 to 175 µM
- IC50 [13]: 5.03 to 175 µM

Compound: Cc1cc(C)c2c(Cn3cc(CO[C@H]4O[C@@H]5O[C@@]6(C)CC[C@H]7[C@H](C)CC[C@@H]([C@H]4C)[C@@]57OO6)nn3)cc(=O)oc2c1
- IC50 [26]: 8.57 to 100 µM
- IC50 [27]: 8.57 to 100 µM
- IC50 [28]: 8.57 to 100 µM

Compound: C/C(=N\Nc1nc(C)c(-c2ccccc2)s1)c1ccc(NS(=O)(=O)c2ccc3oc(=O)ccc3c2)cc1
- IC50 [11]: 5.03 to 175 µM
- IC50 [12]: 3.48 µM
- IC50 [13]: 5.03 to 175 µM

Compound: COc1ccc(-c2csc(-n3nc(C)cc3-c3cc4cc(Cl)ccc4oc3=O)n2)cc1
- IC50 [29]: 3.06 to 3.74 µM
- IC50 [30]: 4.03 to 31.5 µM

Compound: CCN(CC)c1ccc2cc(C(=O)NNC(=O)Cn3nc(Cc4ccc(Cl)c(Cl)c4)[nH]c3=O)c(=O)oc2c1
- IC50 [1]: 3.1 to 37.9 µg/mL (≈ 5.54 to 67.7 µM)
- IC50 [2]: 3.1 to 37.9 µg/mL (≈ 5.54 to 67.7 µM)
- IC50 [3]: 3.1 to 37.9 µg/mL (≈ 5.54 to 67.7 µM)
- IC50 [4]: 3.1 to 37.9 µg/mL (≈ 5.54 to 67.7 µM)

Compound: CCN(CC)c1ccc2cc(C(=O)N3CCN(C(=O)CN4CCN(CCC[C@H]5O[C@@H]6O[C@@]7(C)CC[C@H]8[C@H](C)CC[C@@H]([C@H]5C)[C@@]68OO7)CC4)CC3)c(=O)oc2c1
- IC50 [5]: 2.33 to 23.7 µM
- IC50 [6]: 2.33 to 23.7 µM
- IC50 [7]: 2.33 to 23.7 µM
- IC50 [8]: 2.33 to 23.7 µM

Compound: CN(C)c1ccc(C2CC(c3cc4ccccc4oc3=O)=NN2c2nc(-c3ccccc3)c(/N=N/c3ccc(Cl)cc3)s2)cc1 (stereo unspecified)
- IC50 [31]: 114 to 129 µM
- IC50 [32]: 5.41 to 6.56 µM
- IC50 [33]: 0.034 to 0.582 µM

Compound: O=c1ccc2ccccc2o1 [COUMARIN]
- IC50 [5]: > 100 µM
- IC50 [6]: > 100 µM
- IC50 [7]: > 100 µM
- IC50 [8]: > 100 µM

Compound: C/C(=N\NC1=NC(=O)CS1)c1ccc(NS(=O)(=O)c2ccc3oc(=O)ccc3c2)cc1
- IC50 [11]: 5.03 to 175 µM
- IC50 [12]: 5.03 µM
- IC50 [13]: 5.03 to 175 µM

Compound: Cc1ccc2c(Cn3cc(CO[C@H]4O[C@@H]5O[C@@]6(C)CC[C@H]7[C@H](C)CC[C@@H]([C@H]4C)[C@@]57OO6)nn3)cc(=O)oc2c1
- IC50 [26]: 8.57 to 100 µM
- IC50 [27]: 8.57 to 100 µM
- IC50 [28]: 8.57 to 100 µM

Compound: Cc1cc(-c2cc3ccccc3oc2=O)n(-c2nc(-c3ccc(Cl)cc3)cs2)n1
- IC50 [29]: 3.06 to 3.74 µM
- IC50 [30]: 4.03 to 31.5 µM

Compound: Cc1ccc2oc(=O)cc(CSc3nc(-c4ccccc4)c(C#N)c(N4CCOCC4)n3)c2c1
- IC50 [9]: 5.5 to 91.1 µM
- IC50 [10]: 5.5 to 91.1 µM

Compound: COc1ccc(-c2cn(Cc3cc(=O)oc4cc(O)c(O)cc34)nn2)cc1
- IC50 [34]: 9.7 to 81.9 µM
- IC50 [35]: 9.7 to 81.9 µM
- IC50 [36]: 9.7 to 81.9 µM

Source: ChEMBL document CHEMBL4373717, “Coumarin-containing hybrids and their anticancer activities” (Eur J Med Chem, 2019)
